Laboratory results taken from ChEMBL document CHEMBL3885881, “DrugMatrix”.

Species on record: Rattus norvegicus
Experiment: DrugMatrix - Regimen: Daily Repeat
Type: toxicity, organism-based, Sprague-Dawley
Parameters: regimen Daily Repeat, gender Male, age 6-8 weeks
Settings: in vivo, po, route oral GAVAGE, vehicle 100 % WATER; for ABSOLUTE BASOPHIL / ABSOLUTE EOSINOPHIL / ABSOLUTE LYMPHOCYTE / ABSOLUTE MONOCYTE / ABSOLUTE SEGMENTED NEUTROPHIL / BASOPHIL / EOSINOPHIL / ERYTHROCYTE COUNT / HEMATOCRIT / HEMOGLOBIN / LEUKOCYTE COUNT / LYMPHOCYTE / MEAN CORPUSCULAR HEMOGLOBIN / MEAN CORPUSCULAR HEMOGLOBIN CONCENTRATION / MEAN CORPUSCULAR VOLUME / MONOCYTE / NEUTROPHIL / NUCLEATED RED BLOOD CELLS / PLATELET COUNT: tissue Blood; for ALANINE AMINOTRANSFERASE / ALBUMIN / ALKALINE PHOSPHATASE / ASPARTATE AMINOTRANSFERASE / BLOOD UREA NITROGEN / CARBON DIOXIDE / CHLORIDE / CHOLESTEROL / CREATINE PHOSPHOKINASE / CREATININE / GLUCOSE / LACTATE DEHYDROGENASE / LIPASE / PHOSPHORUS / POTASSIUM / SODIUM / TOTAL BILIRUBIN / TOTAL PROTEIN / URIC ACID: tissue Plasma
[1] = 63 mg/kg, 120 h, dose level High, time 5 day
[2] = […], 72 h, dose 6.3 mg/Kg, dose level Low, time 3 day
[3] = […], 120 h, dose 6.3 mg/Kg, dose level Low, time 5 day

CNCCC=C1c2ccccc2CCc2ccccc21 [NORTRIPTYLINE]
ABSOLUTE BASOPHIL [1]: 0 CELLS/uL
ABSOLUTE EOSINOPHIL [1]: 0 CELLS/uL
ABSOLUTE LYMPHOCYTE [1]: 11759 CELLS/uL
ABSOLUTE MONOCYTE [1]: 53.67 CELLS/uL
ABSOLUTE SEGMENTED NEUTROPHIL [1]: 987.33 CELLS/uL
BASOPHIL [1]: 0%
EOSINOPHIL [1]: 0%
ERYTHROCYTE COUNT [1]: 5.77 x10E6/uL
HEMATOCRIT [1]: 35.97%
HEMOGLOBIN [1]: 14.67 G/DL
LEUKOCYTE COUNT [1]: 12.8 x10E3/uL
LYMPHOCYTE [1]: 91.67%
MEAN CORPUSCULAR HEMOGLOBIN [1]: 25.43 pg
MEAN CORPUSCULAR HEMOGLOBIN CONCENTRATION [1]: 40.77 G/DL
MEAN CORPUSCULAR VOLUME [1]: 62.33 fL
MONOCYTE [1]: 0.33%
NEUTROPHIL [1]: 8%
NUCLEATED RED BLOOD CELLS [1]: 0 /100WBC
PLATELET COUNT [1]: 1245.67 x10E3/uL
ALANINE AMINOTRANSFERASE [1]: 45.67 u/L
ALBUMIN [1]: 4.27 G/DL
ALKALINE PHOSPHATASE [1]: 460.33 u/L
ASPARTATE AMINOTRANSFERASE [1]: 77.33 u/L
BLOOD UREA NITROGEN [1]: 16.33 mg/dL
CARBON DIOXIDE [1]: 29 mmol/L
CHLORIDE [1]: 101.33 MEQ/L
CHOLESTEROL [1]: 78 mg/dL
CREATINE PHOSPHOKINASE [1]: 346.33 u/L
CREATININE [1]: 0.24 mg/dL
GLUCOSE [1]: 205 mg/dL
LACTATE DEHYDROGENASE [1]: 142 u/L
LIPASE [1]: 9.67 u/L
PHOSPHORUS [1]: 11.23 mg/dL
POTASSIUM [1]: 4.99 MEQ/L
SODIUM [1]: 144.43 MEQ/L
TOTAL BILIRUBIN [1]: 0.17 mg/dL
TOTAL PROTEIN [1]: 6.07 G/DL
URIC ACID [1]: 1.6 mg/dL
ABSOLUTE BASOPHIL [2]: 0 CELLS/uL
ABSOLUTE EOSINOPHIL [2]: 47.67 CELLS/uL
ABSOLUTE LYMPHOCYTE [2]: 13905.67 CELLS/uL
ABSOLUTE MONOCYTE [2]: 0 CELLS/uL
ABSOLUTE SEGMENTED NEUTROPHIL [2]: 1246.67 CELLS/uL
BASOPHIL [2]: 0%
EOSINOPHIL [2]: 0.33%
ERYTHROCYTE COUNT [2]: 5.4 x10E6/uL
HEMATOCRIT [2]: 34.5%
HEMOGLOBIN [2]: 13.8 G/DL
LEUKOCYTE COUNT [2]: 15.2 x10E3/uL
LYMPHOCYTE [2]: 90.67%
MEAN CORPUSCULAR HEMOGLOBIN [2]: 25.57 pg
MEAN CORPUSCULAR HEMOGLOBIN CONCENTRATION [2]: 39.97 G/DL
MEAN CORPUSCULAR VOLUME [2]: 63.87 fL
MONOCYTE [2]: 0%
NEUTROPHIL [2]: 9%
NUCLEATED RED BLOOD CELLS [2]: 0.33 /100WBC
PLATELET COUNT [2]: 1291.33 x10E3/uL
ALANINE AMINOTRANSFERASE [2]: 51.33 u/L
ALBUMIN [2]: 3.87 G/DL
ALKALINE PHOSPHATASE [2]: 385.33 u/L
ASPARTATE AMINOTRANSFERASE [2]: 86.33 u/L
BLOOD UREA NITROGEN [2]: 14.33 mg/dL
CARBON DIOXIDE [2]: 34 mmol/L
CHLORIDE [2]: 99.33 MEQ/L
CHOLESTEROL [2]: 71.33 mg/dL
CREATINE PHOSPHOKINASE [2]: 248 u/L
CREATININE [2]: 0.17 mg/dL
GLUCOSE [2]: 136.67 mg/dL
LACTATE DEHYDROGENASE [2]: 250.33 u/L
LIPASE [2]: 10 u/L
PHOSPHORUS [2]: 11.47 mg/dL
POTASSIUM [2]: 6.49 MEQ/L
SODIUM [2]: 143 MEQ/L
TOTAL BILIRUBIN [2]: 0.23 mg/dL
TOTAL PROTEIN [2]: 5.9 G/DL
URIC ACID [2]: 1.23 mg/dL
ABSOLUTE BASOPHIL [3]: 0 CELLS/uL
ABSOLUTE EOSINOPHIL [3]: 0 CELLS/uL
ABSOLUTE LYMPHOCYTE [3]: 14550 CELLS/uL
ABSOLUTE MONOCYTE [3]: 394 CELLS/uL
ABSOLUTE SEGMENTED NEUTROPHIL [3]: 2022.67 CELLS/uL
BASOPHIL [3]: 0%
EOSINOPHIL [3]: 0%
ERYTHROCYTE COUNT [3]: 5.68 x10E6/uL
HEMATOCRIT [3]: 35.47%
HEMOGLOBIN [3]: 14.63 G/DL
LEUKOCYTE COUNT [3]: 16.97 x10E3/uL
LYMPHOCYTE [3]: 85.67%
MEAN CORPUSCULAR HEMOGLOBIN [3]: 25.87 pg
MEAN CORPUSCULAR HEMOGLOBIN CONCENTRATION [3]: 41.2 G/DL
MEAN CORPUSCULAR VOLUME [3]: 62.7 fL
MONOCYTE [3]: 2.33%
NEUTROPHIL [3]: 12%
NUCLEATED RED BLOOD CELLS [3]: 0 /100WBC
PLATELET COUNT [3]: 1314.33 x10E3/uL
ALANINE AMINOTRANSFERASE [3]: 49.33 u/L
ALBUMIN [3]: 4.63 G/DL
ALKALINE PHOSPHATASE [3]: 430.67 u/L
ASPARTATE AMINOTRANSFERASE [3]: 87.33 u/L
BLOOD UREA NITROGEN [3]: 23 mg/dL
CARBON DIOXIDE [3]: 28 mmol/L
CHLORIDE [3]: 98.33 MEQ/L
CHOLESTEROL [3]: 70.33 mg/dL
CREATINE PHOSPHOKINASE [3]: 246 u/L
CREATININE [3]: 0.24 mg/dL
GLUCOSE [3]: 143.33 mg/dL
LACTATE DEHYDROGENASE [3]: 121 u/L
LIPASE [3]: 11 u/L
PHOSPHORUS [3]: 12.13 mg/dL
POTASSIUM [3]: 7.2 MEQ/L
SODIUM [3]: 141.23 MEQ/L
TOTAL BILIRUBIN [3]: 0.27 mg/dL
TOTAL PROTEIN [3]: 6.6 G/DL
URIC ACID [3]: 2.13 mg/dL
